Test results as given in patent publication US4415546A, “Biologically active analogs of ACTH and radioimmuno assay therefor” (priority 1981, dated 1983).
Where two headings read alike, the source gives them in different places. Each block holds one substance with its values, some of them ahead of it. No end group written: not given here.

Experiments:
[1] = target: ACTH antiserum; test: standard radioimmunoassay, displacement of [125I]-Tyr23,Phe2,Nle4-ACTH (1-38) from ACTH antiserum; type: binding, rabbit
Protocol: Standard radioimmunoassays were performed as follows: Unlabeled ACTH or other peptides in a volume of 50 μl were mixed with 50 μl antiserum and 50 μl Protein A immunoprecipitant washed as described above. All components were prepared in assay buffer and incubated at 4° for 24 hr. […] One ml of assay buffer was added and the tubes were processed as described above for counting in the Beckman 4000 counter.

[2] = target: ACTH antiserum 46-1; test: saturation curves of ACTH antiserum with labeled ACTH; type: binding, rabbit
Protocol: Varying amounts of labeled ACTH were incubated with the antiserum at a final dilution of 1:58,000 in a total volume of 200 μl for 2 hr. at room temperature. Blanks containing no antiserum were included for each point.
25 μl of this washed protein A immunoprecipitant was added and the incubation was continued at 4° for 18 hr. One ml of assay buffer at 4° was added to a series of tubes and the tubes were then centrifuged at 2500 rpm for 15 min in a Beckman model TJ-6 refrigerated centrifuge.
The tubes containing [^3 H]-ACTH were processed similarly, drained, wiped and then 0.5 ml 0.1 N NaOH was added. The tubes were stirred on a Vortex mixer for 20 sec. and incubated at 37° for 30 min. An aliquot (0.4 ml) of the NaOH extract was mixed with phase combininhg scintillant (PCS, Amersham) and counted in a Packard PRIAS scintillation counter.

[3] = tested on: isolated rat adrenocortical cells; test: isolated rat adrenocortical cell assay (corticosterone production); type: cell-based
[4] = tested on: steroidogenesis; conditions: literature values; cited from earlier work
[5] = isolated rat adrenocortical cells, result in words

IC50 ([1]; preincubation of the antiserum with the competing peptide, read-out: value for 50% displacement of radioligand): 0.0203 ± 0.0033 nM
equivalents of unlabeled hormone for 50% displacement of the radioligand ([1]; under the preincubation conditions): less than one equivalent
equivalents of unlabeled hormone for 50% displacement of the radioligand ([1]; without preincubation): one equivalent
Kd ([2]; from saturation curves, antiserum dilution 1:58,000, read-out: apparent dissociation constant for the interaction with antiserum 46-1): 0.096 ± 0.016 nM
Substance: H-Ser^1 -Tyr-Ser-Met-Glu^5 -His-Phe-Arg-Trp-Gly^10 -Lys-Pro-Val-Gly-Lys^15 -Lys-Arg-Arg-Pro-Val^20 -Lys-Val-Tyr-Pro-Asn^25 -Gly-Ala-Glu-Asp-Glu^30 -Ser-Ala-Glu-Ala-Phe^35 -Pro-Leu-Glu-Phe^39 -Oh [ACTH]

Substance: Phe^2, Nle^4 -ACTH-(1-38)
maximal stimulation of corticosterone production compared with human ACTH [3, 5]: same maximal degree as human ACTH
steroidogenic potency compared with ACTH [3, 5]: as potent as ACTH

Substance: [^125 I]-Tyr^23,Phe^2,Nle^4 -ACTH (1-38)
EC50 ([3]; corticosterone production, 37° for 1 hr, non-linear least squares analysis, read-out: concentration required for half maximal stimulation of steroidogenesis): 0.0407 ± 0.0069 nM
steroidogenic potency compared with ACTH [3, 5]: indistinguishable from that of ACTH
Kd ([2]; saturation binding, no preincubation, read-out: concentration needed for half-maximal binding of the radioligand): 0.096 ± 0.016 nM

Substance: [^125 I]ACTH: 125I labelled natural ACTH prepared by a lactoperoxidase process (McIlhinney and Schulster) (SYSMEHFRWGKPVGKKRRPVKVYPNGAEDESAEAFPLEF; also: 125I label (lactoperoxidase); UniProt P01189 138-176, looked up)
steroidogenic activity / potency relative to natural ACTH [4]: 50%

Substance: monoiodo Tyr^23,Phe^2,Nle^4 -ACTH (1-38)
displacement curve compared with ACTH ([1]; result in words): identical
steroidogenic potency compared with ACTH [3, 5]: equipotent with ACTH
